Assay results reported in ChEMBL document CHEMBL2321844, “Discovery of nosokophic acid, a predicted intermediate of moenomycins, from nosokomycin-producing Streptomyces sp. K04-0144” (2013).
Values after ≈ are worked out from the molar mass of the structure shown. Active and inactive are the calls of the source. No cut-off for these calls is given here.

Assays:
Format in all cases: functional
Staphylococcus aureus [1] = assay: Antimicrobial activity against methicillin-resistant Staphylococcus aureus after 20 hrs by liquid microdilution method
Staphylococcus aureus [2] = assay: Potentiation of tetracycline antimicrobial activity against methicillin-resistant Staphylococcus aureus at 10 ug/ml after 20 hrs by liquid microdilution method
Staphylococcus aureus [3] = assay: Potentiation of streptomycin antimicrobial activity against methicillin-resistant Staphylococcus aureus at 10 ug/ml after 20 hrs by liquid microdilution method

| Compound | Activity (Staphylococcus aureus [1]) | fractional inhibitory concentration index (FICI) (Staphylococcus aureus [2]) | MIC (Staphylococcus aureus [1]) [µg/mL] | fractional inhibitory concentration index (FICI) (Staphylococcus aureus [3]) |
| --- | --- | --- | --- | --- |
| CC(C)=CCC/C(C)=C/CC/C(C)=C\COC(COP(=O)(O)O[C@H]1O[C@H](C(N)=O)[C@H](O)[C@H](O)[C@H]1O)C(=O)O (some centres not stated) | inactive | – | – | – |
| CN(C)[C@@H]1C(O)=C(C(N)=O)C(=O)[C@@]2(O)C(O)=C3C(=O)c4c(O)cccc4[C@@](C)(O)[C@H]3C[C@@H]12 [TETRACYCLINE] | – | 1 | 32 (≈ 72 µM) | – |
| C[C@@H](O)[C@H]1C(=O)N2C(C(=O)O)=C(SCCNC=N)C[C@H]12 [IMIPENEM ANHYDROUS] | – | – | 16 (≈ 53.4 µM) | – |
| CN[C@H](CC(C)C)C(=O)N[C@H]1C(=O)N[C@@H](CC(N)=O)C(=O)N[C@H]2C(=O)N[C@H]3C(=O)N[C@H](C(=O)N[C@H](C(=O)O)c4cc(O)cc(O)c4-c4cc3ccc4O)[C@H](O)c3ccc(c(Cl)c3)Oc3cc2cc(c3O[C@@H]2O[C@H](CO)[C@@H](O)[C@H](O)[C@H]2O[C@H]2C[C@](C)(N)[C@H](O)[C@H](C)O2)Oc2ccc(cc2Cl)[C@H]1O [VANCOMYCIN] | – | – | 0.5 (≈ 0.345 µM) | – |
| CN[C@@H]1[C@H](O[C@H]2[C@H](O[C@H]3[C@H](O)[C@@H](O)[C@H](N=C(N)N)[C@@H](O)[C@@H]3N=C(N)N)O[C@@H](C)[C@]2(O)C=O)O[C@@H](CO)[C@H](O)[C@H]1O [STREPTOMYCIN] | – | – | 2 (≈ 3.44 µM) | 1 |
